Results reported in PubChem BioAssay AID256 (DTP/NCI, 2004).
Toxic doses and inconclusive results are not listed.

Test system: CD2F1 mice, L1210 leukemia ip, survival T/C
Assay: NCI In Vivo Anticancer Drug Screen. Data for tumor model L1210 Leukemia (intraperitoneal) in CD2F1 (CDF1) mice
Settings: endpoint: mean survival time, higher = longer survival
How it was run: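 Ratio T/C, where T is the treated-group value and C the vehicle-dosed control value, from mice implanted with a transplantable tumor.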

[1] = dose: 100.0 mg/kg/injection, schedule: Q01DX009 (ip), vehicle: saline with Tween-80
[2] = dose: 200.0 mg/kg/injection, schedule: Q01DX009 (ip), vehicle: saline with Tween-80
[3] = dose: 400.0 mg/kg/injection, schedule: Q01DX009 (ip), vehicle: saline with Tween-80

In the case of `COc1ccc2c(c1)CCc1cnn(C3OC(COC(C)=O)C(OC(C)=O)C(OC(C)=O)C3OC(C)=O)c1-2` (centres undefined), the T/C (dose: 12.5 mg/kg/injection, schedule: Q01DX005 (ip), vehicle: other) is reported as 92 % of control, the T/C (dose: 25.0 mg/kg/injection, schedule: Q01DX005 (ip), vehicle: other) is reported as 90 % of control and the T/C (dose: 50.0 mg/kg/injection, schedule: Q01DX005 (ip), vehicle: other) is reported as 87 % of control.
In the case of `Nc1nc(N)c2nc(CCSc3ccc(C(=O)NC(CCC(=O)O)C(=O)O)cc3)cnc2n1` (centres undefined), the T/C (dose: 0.38 mg/kg/injection, schedule: Q01DX009 (ip), vehicle: sodium bicarbonate) is reported as 96 % of control, the T/C (dose: 0.75 mg/kg/injection, schedule: Q01DX009 (ip), vehicle: sodium bicarbonate) is reported as 100 % of control and the T/C (dose: 1.5 mg/kg/injection, schedule: Q01DX009 (ip), vehicle: sodium bicarbonate) is reported as 104 % of control. The T/C (dose: 3.0 mg/kg/injection, schedule: Q01DX009 (ip), vehicle: sodium bicarbonate) was 95 % of control, the T/C (dose: 6.0 mg/kg/injection, schedule: Q01DX009 (ip), vehicle: sodium bicarbonate) was 91 % of control and the T/C (dose: 12.0 mg/kg/injection, schedule: Q01DX009 (ip), vehicle: sodium bicarbonate) was 93 % of control. The T/C (dose: 24.0 mg/kg/injection, schedule: Q01DX009 (ip), vehicle: sodium bicarbonate) was 102 % of control and the T/C (dose: 48.0 mg/kg/injection, schedule: Q01DX009 (ip), vehicle: sodium bicarbonate) was 106 % of control.
With `CCOP(=O)(N1CC1(C)C)N1CC1(C)C` (centres undefined) the T/C (dose: 5.0 mg/kg/injection, schedule: Q01DX009 (ip), vehicle: saline) was 104 % of control, the T/C (dose: 10.0 mg/kg/injection, schedule: Q01DX009 (ip), vehicle: saline) was 114 % of control and the T/C (dose: 30.0 mg/kg/injection, schedule: Q01DX009 (ip), vehicle: saline) was 162 % of control. The T/C (dose: 50.0 mg/kg/injection, schedule: Q01DX009 (ip), vehicle: saline) was 225 % of control, the T/C (dose: 80.0 mg/kg/injection, schedule: Q01DX009 (ip), vehicle: saline) was 307 % of control and the T/C (dose: 120.0 mg/kg/injection, schedule: Q01DX009 (ip), vehicle: saline) was 102 % of control.
For `CN(C)N(Cc1ccccc1)/N=N/c1nc[nH]c1C(N)=O`, the T/C (dose: 50.0 mg/kg/injection, schedule: Q01DX001 (ip), vehicle: Klucel (hydroxypropylcellulose) (HPC)) was 107 % of control, the T/C (dose: 50.0 mg/kg/injection, schedule: Q01DX009 (ip), vehicle: Klucel (hydroxypropylcellulose) (HPC)) was 105 % of control and the T/C (dose: 100.0 mg/kg/injection, schedule: Q01DX001 (ip), vehicle: Klucel (hydroxypropylcellulose) (HPC)) was 98 % of control. For the same molecule, the T/C (dose: 100.0 mg/kg/injection, schedule: Q01DX009 (ip), vehicle: Klucel (hydroxypropylcellulose) (HPC)) was 96 % of control, the T/C (dose: 200.0 mg/kg/injection, schedule: Q01DX001 (ip), vehicle: Klucel (hydroxypropylcellulose) (HPC)) was 90 % of control and the T/C (dose: 200.0 mg/kg/injection, schedule: Q01DX009 (ip), vehicle: Klucel (hydroxypropylcellulose) (HPC)) was 107 % of control.
`CN(CCN1CCCCC1)C(=O)C(O)(c1ccccc1)c1ccccc1` was tested, and the T/C (dose: 75.0 mg/kg/injection, schedule: Q01DX001 (ip), vehicle: saline) was 104 % of control and the T/C (dose: 150.0 mg/kg/injection, schedule: Q01DX001 (ip), vehicle: saline) was 98 % of control.
For `Cc1ncc(C(=O)O)n1Cc1ccccc1`, the T/C [1] was 94 % of control, the T/C [2] was 94 % of control and the T/C [3] was 92 % of control.
With `CC1C=COCCO1` (centres undefined) (tested in a mixture with another compound) the T/C (dose: 100.0 mg/kg/injection, schedule: Q04DX003 (ip), vehicle: acetone) was 97 % of control, the T/C (dose: 200.0 mg/kg/injection, schedule: Q04DX003 (ip), vehicle: acetone) was 98 % of control and the T/C (dose: 400.0 mg/kg/injection, schedule: Q04DX003 (ip), vehicle: acetone) was 98 % of control.
In the case of `O=[N+]([O-])c1ccc(/C=N/O)s1`, the T/C (dose: 12.5 mg/kg/injection, schedule: Q01DX009 (ip), vehicle: saline with Tween-80) is reported as 106 % of control and the T/C (dose: 25.0 mg/kg/injection, schedule: Q01DX009 (ip), vehicle: saline with Tween-80) is reported as 98 % of control.
With `O=Cc1n[nH]nc1-c1ccccc1` the T/C [1] was 94 % of control, the T/C (dose: 100.0 mg/kg/injection, schedule: Q04DX003 (ip), vehicle: saline with Tween-80) was 98 % of control and the T/C [2] was 100 % of control. For the same molecule, the T/C (dose: 200.0 mg/kg/injection, schedule: Q04DX003 (ip), vehicle: saline with Tween-80) was 101 % of control, the T/C [3] was 103 % of control and the T/C (dose: 400.0 mg/kg/injection, schedule: Q04DX003 (ip), vehicle: saline with Tween-80) was 95 % of control.
